In US8299048B2, “Hexahydrocyclopentyl[f]indazole sulfonamides and derivatives thereof as selective glucocorticoid receptor modulators” (Merck Sharp & Dohme Corp., priority 2008, dated 2012):

Key:
[1] = biological target: T1, human GR (Homo sapiens, UniProt P04150); assay: Trans-Activation Modulation of Glucocorticoid Receptor (GRAMMER), MMTV-LUC reporter, agonist mode; assay type: cell-based; set-up: endogenous in cells; settings: for Emax: A549, A549 cells, maximum activity, read-out: Transactivation A549 Cells GRAMMER Emax; for EC50: A549 cells, inflection point, read-out: Transactivation A549 Cells GRAMMER IP
T1 sequence (P04150 1-777): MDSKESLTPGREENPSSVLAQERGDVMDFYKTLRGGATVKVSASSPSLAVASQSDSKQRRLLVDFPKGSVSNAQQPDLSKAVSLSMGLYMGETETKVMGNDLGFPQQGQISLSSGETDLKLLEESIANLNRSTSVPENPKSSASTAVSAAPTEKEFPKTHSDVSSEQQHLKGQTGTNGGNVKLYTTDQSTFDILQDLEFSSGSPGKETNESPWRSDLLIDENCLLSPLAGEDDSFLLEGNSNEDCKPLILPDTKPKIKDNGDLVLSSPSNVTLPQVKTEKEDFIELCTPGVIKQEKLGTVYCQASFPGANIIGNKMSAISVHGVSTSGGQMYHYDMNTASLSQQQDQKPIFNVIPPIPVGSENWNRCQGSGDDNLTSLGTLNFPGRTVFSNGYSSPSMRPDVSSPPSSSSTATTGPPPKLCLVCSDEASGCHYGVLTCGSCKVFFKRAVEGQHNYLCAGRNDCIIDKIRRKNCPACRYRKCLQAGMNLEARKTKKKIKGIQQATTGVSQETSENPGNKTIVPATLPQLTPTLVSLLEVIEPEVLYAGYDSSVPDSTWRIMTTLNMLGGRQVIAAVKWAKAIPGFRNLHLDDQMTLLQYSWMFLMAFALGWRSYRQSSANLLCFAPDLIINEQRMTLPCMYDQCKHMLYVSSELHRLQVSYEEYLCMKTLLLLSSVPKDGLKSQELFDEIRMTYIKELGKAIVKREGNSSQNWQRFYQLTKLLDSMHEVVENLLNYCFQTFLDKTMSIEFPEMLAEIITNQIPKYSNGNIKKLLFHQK
Method in brief: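 Readout is luciferase from a modified MMTV LTR promoter after 24 h compound exposure alongside 10 nM dexamethasone (100% activity reference), DMSO ≤1%.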

[2] = biological target: T1, human GR; assay: Transrepression Assay (GITAR), TNFα-β-lactamase reporter in U937 cells; assay type: cell-based; set-up: U937 cells contain an endogenous glucocorticoid receptor (GR); endogenous in cells; host or cells: U937 cells stably transfected with the TNF-alpha promoter/beta-lactamase reporter; settings: for GITAR > GRAMM % SEP: GITAR Emax minus GRAMMER Emax; for EC50: U937 cells, inflection point, read-out: Transrepression U937 Cells GITAR IP
Method in brief: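 Stable TNF-α-promoter/β-lactamase U937 line, endogenous GR; 50,000 cells/well. Cmpd 30–45 min 37 °C → PMA 5 ng/ml + LPS 100 ng/ml final, 37 °C ~18 hr → CCF2-AM 70–90 min RT. 100 nM dex = 100%.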

[3] = U-937, U937 cells, maximum activity, read-out: Transrepression U937 Cells GITAR Emax
[4] = U-937, activity repressed by 100 nM dexamethasone alone set as 100%, read-out: maximal activity in the transrepression (GITAR) assay

| Compound | Emax [1] [%] | EC50 [1] [µM] | GITAR > GRAMM % SEP [2] [%] | EC50 [2] [µM] | Emax [2, 3] [%] | Emax [2, 4] [%] |
| --- | --- | --- | --- | --- | --- | --- |
| COC(=O)c1ccccc1CS(=O)(=O)N(CCc1ccccc1F)C[C@H]1CCC2=Cc3c(cnn3-c3ccc(F)cc3)C[C@@]21C [Example 188, methyl 2-{[([2-(2-fluorophenyl)ethyl]{[(4αR,5S)-1-(4-fluorophenyl)-4α-methyl-1,4,4α,5,6,7-hexahydrocyclopenta[f]indazol-5-yl]methyl}amino)sulfonyl]methyl}benzoate] | 30.4 | 0.236 | 30.1 | 0.19 | 60.5 | > 5 |
| Cc1cc(S(=O)(=O)N(CC#N)C[C@H]2CCC3=Cc4c(cnn4-c4ccc(F)cc4)C[C@@]32C)c(C)o1 [Example 33, (4αR,5S)-5-({(cyanomethyl)[(2,5-dimethyl-3-furyl)sulfonyl]amino}methyl)-1-(4-fluorophenyl)-4α-methyl-1,4,4α,5,6,7-hexahydrocyclopenta[f]indazol-2-ium] | 15.2 | 1.05 | 44.5 | 1.2 | 59.7 | > 5 |
| COC(=O)c1ccccc1CS(=O)(=O)N(C[C@H]1CCC2=Cc3c(cnn3-c3ccc(F)cc3)C[C@@]21C)C[C@H](C)O [Example 181, methyl 2-[({{[(4αR,5S)-1-(4-fluorophenyl)-4α-methyl-1,4,4α,5,6,7-hexahydrocyclopenta[f]indazol-5-yl]methyl}[(2S)-2-hydroxypropyl]amino}sulfonyl)methyl]benzoate] | 54.6 | 0.364 | 24.7 | 0.263 | 79.2 | > 5 |
| C[C@]12Cc3cnn(-c4ccc(F)cc4)c3C=C1CC[C@@H]2CN(CC#N)S(=O)(=O)c1cccc(C#N)c1 [Example 36, 3-cyano-N-(cyanomethyl)-N-{[(4αR,5S)-1-(4-fluorophenyl)-4α-methyl-1,4,4α,5,6,7-hexahydrocyclopenta[f]indazol-5-yl]methyl}benzenesulfonamide] | 22.7 | 0.745 | 49.5 | 0.54 | 72.2 | > 5 |
| C[C@]12Cc3cnn(-c4ccc(F)cc4)c3C=C1CC[C@@H]2CN(CCCc1ccccc1)S(=O)(=O)c1ccccc1F [Example 195, 2-fluoro-N-{[(4αR,5S)-1-(4-fluorophenyl)-4α-methyl-1,4,4α,5,6,7-hexahydrocyclopenta[f]indazol-5-yl]methyl}-N-(3-phenylpropyl)benzenesulfonamide] | 12.9 | 0.542 | 17.1 | 0.486 | 30 | > 5 |
| C[C@]12Cc3cnn(-c4ccc(F)cc4)c3C=C1CC[C@@H]2CN(CC#N)S(=O)(=O)c1ccc(C#N)cc1 [Example 28, 4-cyano-N-(cyanomethyl)-N-{[(4αR,5S)-1-(4-fluorophenyl)-4α-methyl-1,4,4α,5,6,7-hexahydrocyclopenta[f]indazol-5-yl]methyl}benzenesulfonamide] | 44 | 0.483 | 34.8 | 0.662 | 78.8 | > 5 |
| C[C@]12Cc3cnn(-c4ccc(F)cc4)c3C=C1CC[C@@H]2CN(CCC#N)S(=O)(=O)c1ccccc1F [Example 16, N-(2-cyanoethyl)-2-fluoro-N-{[(4αR,5S)-1-(4-fluorophenyl)-4α-methyl-1,4,4α,5,6,7-hexahydrocyclopenta[f]indazol-5-yl]methyl}benzenesulfonamide] | 53 | 0.255 |  | 0.268 | 84.5 | > 5 |
| C[C@]12Cc3cnn(-c4ccc(F)cc4)c3C=C1CC[C@@H]2CN(CC#N)S(=O)(=O)c1ccc(F)cc1F [Example 51, N-(cyanomethyl)-2,4-difluoro-N-{[(4αR,5S)-1-(4-fluorophenyl)-4α-methyl-1,4,4α,5,6,7-hexahydrocyclopenta[f]indazol-5-yl]methyl}benzenesulfonamide] | 83.3 | 0.433 | 3.5 | 0.186 | 86.8 | > 5 |
| C[C@]12Cc3cnn(-c4ccc(F)cc4)c3C=C1CC[C@@H]2CN(CC#N)S(=O)(=O)Cc1ccccc1 [Example 48, N-(cyanomethyl)-N-{[(4αR,5S)-1-(4-fluorophenyl)-4α-methyl-1,4,4α,5,6,7-hexahydrocyclopenta[f]indazol-5-yl]methyl}-1-phenylmethanesulfonamide] | 8.8 | 0.995 | 15.7 | 0.175 | 24.5 | > 5 |

Next, values leading:

| Emax [1] [%] | EC50 [1] [µM] | GITAR > GRAMM % SEP [2] [%] | EC50 [2] [µM] | Emax [2, 3] [%] | Emax [2, 4] [%] | Compound |
| --- | --- | --- | --- | --- | --- | --- |
| 55 | 0.11 | 19.5 | 0.276 | 74.5 | > 5 | CCN(C[C@H]1CCC2=Cc3c(cnn3-c3ccc(F)cc3)C[C@@]21C)S(=O)(=O)c1c(C)noc1C [Example 178, N-ethyl-N-{[(4αR,5S)-1-(4-fluorophenyl)-4α-methyl-1,4,4α,5,6,7-hexahydrocyclopenta[f]indazol-5-yl]methyl}-3,5-dimethylisoxazole-4-sulfonamide] |
| 18.1 | 0.866 | 36.0 | 0.832 | 54 | > 5 | C[C@]12Cc3cnn(-c4ccc(F)cc4)c3C=C1CC[C@@H]2CN(CC#N)S(=O)(=O)c1ccccc1-c1ccccc1 [Example 53, N-(cyanomethyl)-N-{[(4αR,5S)-1-(4-fluorophenyl)-4α-methyl-1,4,4α,5,6,7-hexahydrocyclopenta[f]indazol-5-yl]methyl}biphenyl-2-sulfonamide] |
| 1.3 | 5 | 32.5 | 2.34 | 33.8 | > 5 | C[C@]12Cc3cnn(-c4ccc(F)cc4)c3C=C1CC[C@@H]2CN(CC#N)S(=O)(=O)c1ccc(Oc2cccc(Cl)c2C#N)cc1 [Example 38, 4-(3-chloro-2-cyanophenoxy)-N-(cyanomethyl)-N-{[(4αR,5S)-1-(4-fluorophenyl)-4α-methyl-1,4,4α,5,6,7-hexahydrocyclopenta[f]indazol-5-yl]methyl}benzenesulfonamide] |
| 56.9 | 0.246 | 17.6 | 0.316 | 74.5 | > 5 | Cc1noc(C)c1S(=O)(=O)N(C)C[C@H]1CCC2=Cc3c(cnn3-c3ccc(F)cc3)C[C@@]21C [Example 176, N-{[(4αR,5S)-1-(4-fluorophenyl)-4α-methyl-1,4,4α,5,6,7-hexahydrocyclopenta[f]indazol-5-yl]methyl}-N,3,5-trimethylisoxazole-4-sulfonamide] |
| 41.9 | 0.517 | 14.4 | 0.291 | 56.2 | > 5 | Cc1noc(C)c1S(=O)(=O)N(CCCc1ccccc1)C[C@H]1CCC2=Cc3c(cnn3-c3ccc(F)cc3)C[C@@]21C [Example 194, N-{[(4αR,5S)-1-(4-fluorophenyl)-4α-methyl-1,4,4α,5,6,7-hexahydrocyclopenta[f]indazol-5-yl]methyl}-3,5-dimethyl-N-(3-phenylpropyl)isoxazole-4-sulfonamide] |
| 47.8 | 0.0884 | 21.7 | 0.486 | 69.5 | > 5 | C[C@]12Cc3cnn(-c4ccc(F)cc4)c3C=C1CC[C@@H]2CN(CC1(O)CCCCC1)S(=O)(=O)c1ccccc1F [Example 201, 2-fluoro-N-{[(4αR,5S)-1-(4-fluorophenyl)-4α-methyl-1,4,4α,5,6,7-hexahydrocyclopenta[f]indazol-5-yl]methyl}-N-[(1-hydroxycyclohexyl)methyl]benzenesulfonamide] |
